According to DBAASP:
≈ marks a conversion by molar mass, not a printed value. Where “and” joins values, the source holds several entries; their conditions need not be identical. Identical values can stand only once.

What was measured:
Assay in all cases: ≥ marks a high value that may be exact or a test limit, other limits are often not marked, values filed in µg/mL are converted to µM
[1] = tested on: Pseudomonas aeruginosa ATCC 27853
[2] = tested on: Escherichia coli ATCC 25922
[3] = tested on: Staphylococcus aureus AB6538
Escherichia coli AB94012 = tested on: Escherichia coli AB94012
[4] = tested on: Pseudomonas aeruginosa ATCC 9027
[5] = tested on: Staphylococcus aureus 113
[6] = tested on: Staphylococcus aureus 936
[7] = tested on: Staphylococcus aureus 794
[8] = tested on: Staphylococcus aureus 725
Staphylococcus aureus MR = tested on: Staphylococcus aureus MR
[9] = tested on: Staphylococcus aureus ATCC 33591
[10] = tested on: Staphylococcus aureus ATCC 25923
[11] = tested on: Listeria monocytogenes ATCC 19115
[12] = tested on: Bacillus subtilis CMCC 63501
[13] = tested on: Salmonella enterica subsp. enterica serovar Typhimurium ATCC 14028
[14] = tested on: Staphylococcus aureus ATCC 6538
[15] = tested on: Escherichia coli CICC 10670
[16] = tested on: Staphylococcus aureus ATCC 35556
[17] = tested on: Escherichia coli D31 CGSC 5165
[18] = tested on: Acinetobacter baumannii ATCC 19606
[19] = tested on: Pseudomonas aeruginosa ATCC 47085
[20] = tested on: Staphylococcus epidermidis ATCC 12228
[21] = tested on: Escherichia coli ATCC 11229
[22] = tested on: Klebsiella pneumoniae ATCC 13866
[23] = tested on: Escherichia coli ATCC 35218
[24] = tested on: Salmonella enterica serovar Typhimurium
[25] = tested on: Staphylococcus aureus ATCC 29213
[26] = tested on: Aspergillus oryzae NBRC 100959
[27] = tested on: Escherichia coli NBRC 3972
[28] = tested on: Staphylococcus epidermidis NBRC 12993
[29] = tested on: Candida viswanathii NBRC 10321
[30] = tested on: Pseudomonas putida NBRC 100650
[31] = tested on: Micrococcus luteus NBRC 3333
[32] = tested on: Bacillus subtilis ATCC 6633
[33] = tested on: Candida albicans ATCC 10231
[34] = tested on: Candida albicans 08032815
[35] = tested on: Candida albicans 08030401
[36] = tested on: Candida albicans ATCC 2002
[37] = tested on: Staphylococcus aureus ATCC 2592
Candida albicans SC5314 = tested on: Candida albicans SC5314
Listeria monocytogenes = tested on: Listeria monocytogenes
Bacillus subtilis = tested on: Bacillus subtilis
[38] = tested on: Escherichia coli BNCC 133264
Escherichia coli = tested on: Escherichia coli
Staphylococcus aureus = tested on: Staphylococcus aureus
[39] = tested on: Pseudomonas aeruginosa BNCC 125486
[40] = tested on: Staphylococcus aureus BNCC 186335

`CC[C@H](C)[C@H](NC(=O)[C@H](CCCCN)NC(=O)[C@@H]1CCCN1C(=O)[C@H](CC(C)C)NC(=O)[C@@H](NC(=O)[C@H](CCCCN)NC(=O)CNC(=O)[C@H](CC(C)C)NC(=O)[C@@H](NC(=O)[C@H](CCCCN)NC(=O)CNC(=O)[C@H](CC(C)C)NC(=O)[C@H](CC(C)C)NC(=O)CNC(=O)[C@H](CC(C)C)NC(=O)[C@@H](N)Cc1ccccc1)C(C)C)C(C)C)C(=O)N[C@@H](Cc1ccccc1)C(=O)N[C@@H](CCCCN)C(N)=O` [FLGLLGKVLGKVLPKIFK] showed an MIC [1] of 12.7 µM (≈ 25 µg/mL), an MIC [2] of 12.7 µM (≈ 25 µg/mL) and an MIC [3] of 3.17 µM (≈ 6.25 µg/mL). For the same compound, the MIC (Escherichia coli AB94012) was 6.34 µM (≈ 12.5 µg/mL) and the MIC [4] was 12.7 µM and 25.4 µM.

`CC(C)C[C@H](NC(=O)[C@@H](NC(=O)[C@H](CCCCN)NC(=O)[C@H](CCCCN)NC(=O)[C@H](Cc1c[nH]c2ccccc12)NC(=O)[C@H](CC(C)C)NC(=O)[C@H](CCCN=C(N)N)NC(=O)[C@H](CC(C)C)NC(=O)[C@H](C)NC(=O)[C@H](CCCCN)NC(=O)CNC(=O)[C@H](CC(C)C)NC(=O)[C@H](CC(C)C)NC(=O)[C@H](CO)NC(=O)CNC(=O)[C@H](Cc1ccccc1)NC(=O)CN)C(C)C)C(N)=O` [GFGSLLGKALRLWKKVL] was tested, and the MIC [5] was 4.24 µM (≈ 8 µg/mL), the MIC [6] was 4.24 µM (≈ 8 µg/mL) and the MIC [7] was 4.24 µM (≈ 8 µg/mL). It also gave an MIC [8] of 4.24 µM (≈ 8 µg/mL), an MIC (Staphylococcus aureus MR) of 4.24 µM (≈ 8 µg/mL) and an MIC [9] of 4.24 µM (≈ 8 µg/mL). The MIC [10] was 2.12 µM and 4.24 µM.

With `CC[C@H](C)[C@H](NC(=O)CN)C(=O)N[C@H](C(=O)N[C@@H](CC(=O)O)C(=O)N[C@@H](CC(C)C)C(=O)N[C@@H](CCCN=C(N)N)C(=O)NCC(=O)N[C@@H](CCSC)C(=O)N[C@@H](CC(C)C)C(=O)N[C@@H](CCCCN)C(=O)N[C@@H](CCCN=C(N)N)C(=O)N[C@@H](CC(C)C)C(=O)N[C@@H](CCCCN)C(=O)N[C@@H](CCCCN)C(=O)N[C@@H](CCSC)C(=O)N[C@@H](CCCCN)C(=O)O)[C@@H](C)O` [GITDLRGMLKRLKKMK] the MIC [11] was 2.5 µM (≈ 4.72 µg/mL), the MIC [12] was 5 µM (≈ 9.44 µg/mL) and the MIC [13] was 5 µM (≈ 9.44 µg/mL). For the same compound, the MIC [14] was 2.5 µM (≈ 4.72 µg/mL) and the MIC [15] was 2.5 µM (≈ 4.72 µg/mL).

In the case of `CC[C@H](C)[C@H](NC(=O)[C@H](CCCCN)NC(=O)CNC(=O)[C@H](CC(C)C)NC(=O)[C@@H](NC(=O)[C@H](C)NC(=O)[C@H](CCCCN)NC(=O)CNC(=O)[C@H](C)NC(=O)CNC(=O)[C@H](CCCCN)NC(=O)[C@H](CCSC)NC(=O)[C@H](CCCCN)NC(=O)[C@@H](NC(=O)[C@H](Cc1c[nH]c2ccccc12)NC(=O)[C@H](CC(C)C)NC(=O)[C@H](CCC(=O)O)NC(=O)[C@H](CCCCN)NC(=O)[C@H](CC(C)C)NC(=O)[C@@H](N)CC(C)C)[C@@H](C)O)C(C)C)C(=O)N[C@@H](CCCCN)C(=O)NCC(=O)N[C@@H](CC(C)C)C(=O)N[C@@H](CC(C)C)C(=O)O` [LLKELWTKMKGAGKAVLGKIKGLL], the MIC [16] is reported as 15 µM (≈ 38.9 µg/mL), the MIC [17] is reported as 0.94 µM (≈ 2.44 µg/mL) and the MIC [18] is reported as 1 µM (≈ 2.6 µg/mL). The MIC [19] was 15 µM (≈ 38.9 µg/mL).

For `CC[C@H](C)[C@H](NC(=O)[C@H](CCCN=C(N)N)NC(=O)[C@@H](N)CCSC)C(=O)NCC(=O)N[C@@H](CC(C)C)C(=O)N[C@@H](CCCN=C(N)N)C(=O)N[C@@H](Cc1ccccc1)C(=O)N[C@H](C(=O)N[C@@H](CC(C)C)C(=O)N[C@@H](CCSC)C(=O)O)C(C)C` [MRIGLRFVLM], the MIC [1] was 12.9 µM (≈ 16 µg/mL), the MIC [20] was 12.9 µM (≈ 16 µg/mL) and the MIC [21] was 12.9 µM (≈ 16 µg/mL). The MIC [22] was 25.9 µM (≈ 32 µg/mL), the MIC [23] was at least 104 µM and the MIC [24] was at least 104 µM. For the same compound, the MIC [9] was at least 104 µM and the MIC [25] was 104 µM (≈ 128 µg/mL).

For `CC[C@H](C)[C@H](NC(=O)[C@H](CCCCN)NC(=O)[C@@H](N)CCCN=C(N)N)C(=O)N[C@@H](CCCCN)C(=O)N[C@@H](CCCN=C(N)N)C(=O)N[C@@H](Cc1ccc(O)cc1)C(=O)N[C@@H](CC(C)C)C(=O)N[C@@H](CCCN=C(N)N)C(=O)N[C@@H](CCCN=C(N)N)C(=O)N[C@@H](CCSC)C(=O)N[C@@H](CCCCN)C(=O)O` [RKIKRYLRRMK], the MIC [26] was at least 129 µM, the MIC [27] was at least 64.6 µM and the MIC [28] was at least 64.6 µM. The MIC [29] was at least 258 µM, the MIC [30] was at least 258 µM and the MIC [31] was at least 129 µM.

Compound `NCCCC[C@H](NC(=O)[C@H](CCCCN)NC(=O)[C@H](Cc1c[nH]c2ccccc12)NC(=O)[C@H](Cc1c[nH]c2ccccc12)NC(=O)[C@H](CCCCN)NC(=O)[C@H](Cc1ccccc1)NC(=O)[C@H](CCCN=C(N)N)NC(=O)[C@H](Cc1c[nH]c2ccccc12)NC(=O)[C@@H](N)CCCN=C(N)N)C(=O)O` [RWRFKWWKK] has an MIC [32] of 26.4 µM (≈ 37.5 µg/mL), an MIC [33] of 13 µM (≈ 18.5 µg/mL) and an MIC [2] of 26.4 µM (≈ 37.5 µg/mL). The MIC [34] was 13 µM (≈ 18.5 µg/mL), the MIC [35] was 13 µM (≈ 18.5 µg/mL) and the MIC [36] was 13 µM (≈ 18.5 µg/mL). The MIC [10] was 26.4 µM (≈ 37.5 µg/mL).

For `CC(C)[C@H](N)C(=O)N[C@@H](CCCCN)C(=O)N[C@@H](CCCN=C(N)N)C(=O)N[C@@H](Cc1ccccc1)C(=O)N[C@@H](CCCCN)C(=O)N[C@@H](CCCCN)C(=O)N[C@@H](Cc1ccccc1)C(=O)N[C@@H](Cc1ccccc1)C(=O)N[C@@H](CCCN=C(N)N)C(=O)N[C@@H](CCCCN)C(=O)N[C@@H](Cc1ccccc1)C(=O)N[C@@H](CCCCN)C(=O)N[C@@H](CCCCN)C(=O)N[C@@H](Cc1ccccc1)C(=O)N[C@H](C(N)=O)C(C)C` [VKRFKKFFRKFKKFV], the MIC [37] was 9.2 µM (≈ 18.7 µg/mL), the MIC (Candida albicans SC5314) was 4.6 µM (≈ 9.35 µg/mL) and the MIC [2] was 4.6 µM (≈ 9.35 µg/mL). It also gave an MIC (Listeria monocytogenes) of 7.87 µM (≈ 16 µg/mL), an MIC (Bacillus subtilis) of 9.2 µM (≈ 18.7 µg/mL) and an MIC [38] of 0.984 µM (≈ 2 µg/mL). For the same compound, the MIC (Escherichia coli) was 7.87 µM (≈ 16 µg/mL), the MIC (Staphylococcus aureus) was 3.93 µM (≈ 8 µg/mL) and the MIC [39] was 3.93 µM (≈ 8 µg/mL). The MIC [40] was 1.97 µM (≈ 4 µg/mL).
